Assay results from paper PMC9780825, “Combining mKate2-Kv1.3 Channel and Atto488-Hongotoxin for the Studies of Peptide Pore Blockers on Living Eukaryotic Cells” (Toxins, 2022).

How the values were obtained:
[1] = molecular target: Kv1.3 channel; conditions: whole-cell patch-clamp; mouse channels, L929 mouse fibroblast cells; read-out: Kd (published); cited from earlier work
Text: Table 1 The Kap values for the complexes formed by K-ΔKv1.3 with the studied pore blockers and published data on the affinities of these blockers. | column: KTx1; ChTx; AgTx2; TEA

[2] = molecular target: K-ΔKv1.3 (N-terminally truncated human Kv1.3 tagged with mKate2) (Homo sapiens, UniProt P22001); assay: Fluorescent competitive binding assay (FCBA), displacement of A-HgTx from K-ΔKv1.3; parameters: expressed in transfected cells; host or cells: HEK293 (transient transfection with pmKate2-KCNA3-del)
Chain of K-ΔKv1.3 (N-terminally truncated human Kv1.3 tagged with mKate2) (P22001 53-575 limits assumed, stated change not applied): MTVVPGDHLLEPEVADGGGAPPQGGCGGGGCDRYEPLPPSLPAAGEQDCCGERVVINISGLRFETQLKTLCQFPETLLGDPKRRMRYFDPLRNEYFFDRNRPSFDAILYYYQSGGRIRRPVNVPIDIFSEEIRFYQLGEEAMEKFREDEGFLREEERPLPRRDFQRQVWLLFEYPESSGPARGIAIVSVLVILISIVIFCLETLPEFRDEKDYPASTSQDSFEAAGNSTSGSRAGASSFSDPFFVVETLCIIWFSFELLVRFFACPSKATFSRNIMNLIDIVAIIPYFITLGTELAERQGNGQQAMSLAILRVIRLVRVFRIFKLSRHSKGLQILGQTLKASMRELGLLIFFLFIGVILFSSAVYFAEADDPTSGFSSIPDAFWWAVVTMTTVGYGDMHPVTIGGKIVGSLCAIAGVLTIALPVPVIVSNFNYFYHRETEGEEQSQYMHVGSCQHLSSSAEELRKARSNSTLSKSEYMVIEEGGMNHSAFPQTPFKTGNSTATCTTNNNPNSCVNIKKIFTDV
Text: To quantitatively characterize formation of complexes between A-HgTx and K-ΔKv1.3 on cell membranes, the confocal images of A-HgTx bound at the membrane of the K-ΔKv1.3 presenting cells were subjected to the treatment procedure as follows. Regions of interest (ROIs) corresponding to the plasma membranes stained with K-ΔKv1.3 were selected. Using a set of these ROIs and a threshold procedure (to null a background signal from pixels without K-ΔKv1.3 signal), the binary (0;1) mask that describes membranous localization of K-ΔKv1.3 was created. The images of K-ΔKv1.3 and A-HgTx distribution were multiplied by the corresponding mask. Next, average intensities of fluorescence of K-ΔKv1.3 (Ici) and A-HgTx (Ili) were calculated for each ROI (i.e., for each i-cell), and a ratio Ri was calculated as follows. Ri = (Ili − Ilb)/(Ici − Icb) (1) where Ilb and Icb are intensities of background signals in the fluorescent images of A-HgTx and Kv1.3 channels, respectively. Calculating Ri (i.e., normalizing A-HgTx intensity to that of K-ΔKv1.3), a correction was introduced for variations in a level of K-ΔKv1.3 expression on the membrane of particular cells. Ri values of 15–20 cells were averaged to obtain the Rav value, and a standard deviation was calculated.
Concentration of A-HgTx was 2 nM. Concentration of pore blockers C varied as indicated in the graph.
When Kd of A-HgTx and IC50 for the studied compound are known, the apparent dissociation constant Kap of complexes between the compound and channel can be calculated using the Cheng-Prusoff equation [50]:Kap = IC50/(1 + L/Kd)(4) where L is the concentration of A-HgTx in the competitive binding experiment.
In A-HgTx binding experiments, cells were incubated with A-HgTx (0.15–4 nM) for 30 min (37 °C, 5% CO2) in the complete medium. In competitive binding experiments, cells were incubated with A-HgTx (2 nM) and selected pore blocker at variable concentrations (0.5–100 nM for recombinant peptides and 1–20 mM for TEA) for 30 min (37 °C, 5% CO2) in the complete medium.
Experiments with HEK293 cells were performed with a laser scanning confocal microscope Leica-SP2 (Leica Microsystems GmbH, Wetzlar, Germany). The water-immersion 63×/1.2 NA HCX PL APO objective was used.
Fluorescence of mKate2-fused hKv1.3 was excited at the 561 nm wavelength and recorded in the 650–700 nm range. Fluorescence of A-HgTx was excited at the 488 nm wavelength and recorded in the 495–535 nm range. Distributions of A-HgTx and mKate2 fluorescence in cells were imaged using sequential scanning to avoid interference of intrinsic cellular fluorescence excited at the 488 nm with the mKate2 fluorescence.
Each experimental point in the curves describing interaction A-HgTx with mKate2-tagged Kv1.3 channels is an average over 15–25 treated images of cells. […]

SMILES: CC[N+](CC)(CC)CC [TEA, tetraethylammonium]
- Kd [1]: 10 mM
- Kd ([2]; Cheng-Prusoff from IC50, 2 nM A-HgTx, blockers 0.5–100 nM (peptides) or 1–20 mM (TEA), 30 min, 37 °C, 5% CO2, complete medium, HEK293 cells, mean ± SEM, three independent measurements, read-out: Kap, apparent dissociation constant of complexes formed by K-ΔKv1.3 with pore blocker): 2 mM
- active concentration range (FCBA) ([2]; FCBA, HEK293 cells, result in words): active in the millimolar concentration range
- displacement of A-HgTx from the complexes with K-ΔKv1.3 ([2]; living HEK293 cells, 2 nM A-HgTx, result in words): A-HgTx is also displaced
